The values below are quoted from earlier work in patent publication US20160331796A1, “ENRICHED AMARANTHUS BLITOIDES COMPOSITIONS AND USES THEREOF” (priority 2010, published 2016).

This data set has as its system prostate cancer cell lines, and primary prostate tumor lines.

On to Vitamin D, for which the “effect on invasion of prostate cancer cells” value (in vitro) is “decrease invasion”. In addition, the “expression of α6 and β4 integrins” value (integrins associated with increased migration and invasion of prostate cancer cells in vitro) is on record as “decreased expression”. The “effect on proliferation and differentiation of tumor cell types” value (several tumor cell types, including prostate cancer cell lines and primary prostate tumor lines) was “inhibit proliferation and promote differentiation”.
